Laboratory results: US20260248799A1, “COMBINATIONS OF RETINALDEHYDE DEHYDROGENASE 1 (RALDH1) INHIBITORS AND IMMUNOSTIMULATORS AND METHODS USING SAME” (The Trustees of the University of Pennsylvania, priority 2023, published 2026)

Experiments:
[1] = target: T1, Bradykinin B2 (Homo sapiens, UniProt P30411); assay: Safetyscreen: Bradykinin B2; format: binding; details: read-out: % Inh. Bradykinin B2
T1 construct: purchased Eurofins Cereps Panlabs

[2] = system: Huh1 tumors; assay: Huh1 tumors in nude mice; format: in vivo, mouse; details: huh1 in immunodeficient mice; i.p, 10 mg/kg every day
Method: FIG. 27A: Huh1 tumor-bearing nude mice were treated with C86 (i.p, 10 mg/kg) every day. Three or more independent experiments with at least three replicates per sample type. Two-tailed T test. *p<0.05, **p<0.01, ***p<0.001. FIG. 27B: Equal numbers of Raldh1-KO Huh7 and parental Huh7 cells were seeded and viable cells counted over time. […] FIG. 27C: NU/J mice harboring flank Huh7 tumors were treated i.p with C86 daily or with liposomal chlodronate (CloLipo, 200 μl/mouse) every four days. Tumors were harvested 13 days post tumor induction and analyzed for the frequency (left graph) and number (right graph) of the macrophages (CD45+ F4/80+) under different treatment conditions (X-axis). Three or more independent experiments with at least three replicates per sample type. Two-tailed T test. *p<0.05, **p<0.01, ***p<0.001. FIG. 27D: Pictures depicting size differences amongst tumors in experiment outlined in FIG. 26G. […]
Cultured Huh7, Huh1, Hepa 1-6, Hep55, and FS (as indicated in figure legends) tumor cells were detached using 0.25% trypsin (Gibco, catalog #25200056), washed once with 1×PBS, and counted before implantation. […] Tumor dimensions were measured using a caliper starting at the day indicated in the accompanying figure legend and every two to three days thereafter; volume was calculated by using formula Length*Width^2/2. […]

[3] = target: T2, Peptidase, Angiotensin Converting Enzyme (Oryctolagus cuniculus, UniProt P12822); assay: Safetyscreen: ACE; format: biochemical, rabbit; details: read-out: % Inh. Peptidase, Angiotensin Converting Enzyme
T2 construct: Eurofins Cerep Panlabs (contract panel)

[4] = system: murine monocytes from bone marrow; assay: Murine monocyte DC differentiation with SNU398 cells or conditioned media; format: cell-based, mouse; details: HCC cells pre-treated
Text: (§1) FIGS. 22A-22E: RALDH1 inhibition blocks RA-mediated effects of HCC on monocyte differentiation. FIGS. 22A-22B: Circulating primary human monocytes from donors (FIG. 22A) or murine monocytes from bone marrow (FIG. 22B) were cocultured with SNU398 (Human HCC) cells or treated with SNU398-conditioned media (CM) in a DC differentiation system (GM-CSF and IL-4). Two-color histograms show the frequencies of DCs (CD11c^+CD1a^+ for human and CD11c^+MHCII^+ for mouse). The presence of SNU398 or its CM suppressed DC differentiation, which is reversed when SNU398 cells are treated with C86. Three or more independent experiments were performed with at least three replicates per experimental group. Unpaired t test, two-tailed. FIG. 22C: Huh7 (human HCC) cells were subcutaneously injected into flanks of NU/J mice. 12 days later the tumor size was about 50 mm^3 and C86 or vehicle treatment (10 mg/kg, i.p, daily injection) was started. […] The frequencies of the host (murine) DCs (CD45^+F4/80^−CD11C^+MHCII-high) and macrophages (CD45^+F4/80^+) are quantified in a bar graph. […] Shown are the representative FCM plot (histogram) and DC quantification (bar graph). […]
Monocytes were isolated from bone marrow of C57BL/6 mice using the Mouse BM Monocyte Isolation Kit (Miltenyi Biotec) according to manufacturer's instructions. Purity of monocyte was assessed by flow cytometry using CD11b, Ly6C, and Ly6G. […]

[5] = target: T3, Transporter, Norepinephrine (NET) (Homo sapiens, UniProt P23975); assay: Safetyscreen: NET; format: binding; details: read-out: % Inh. Transporter, Norepinephrine (NET)
T3 construct: purchased Eurofins Cereps Panlabs

[6] = system: Phosphodiesterase PDE3; assay: Safetyscreen: PDE3; format: biochemical, human; details: 10 μM
[7] = system: primary human monocytes; assay: Human monocyte DC differentiation with SNU398 cells or conditioned media; format: cell-based
Text: as §1, with “mice.” for “mice. 12 days later the tumor size was about 50 mm^3 and C86 or vehicle treatment (10 mg/kg, i.p, daily injection) was started.”
Mouse monocytes were isolated from bone marrow as described herein and then cultured in RPMI 1640 (ThermoFisher Scientific, Cat #11875085) with 10% fetal bovine serum (GeminiBio, Cat #100-500). […] Cellular identity and function of differentiated monocytes was assessed by flow cytometry and quantitative PCR (qPCR).

[8] = target: T4, Histamine H1 (Homo sapiens, UniProt P35367); assay: Safetyscreen: Histamine H1; format: binding; details: read-out: % Inh. Histamine H1
T4 construct: purchased Eurofins Cereps Panlabs
T4 sequence (P35367 whole entry): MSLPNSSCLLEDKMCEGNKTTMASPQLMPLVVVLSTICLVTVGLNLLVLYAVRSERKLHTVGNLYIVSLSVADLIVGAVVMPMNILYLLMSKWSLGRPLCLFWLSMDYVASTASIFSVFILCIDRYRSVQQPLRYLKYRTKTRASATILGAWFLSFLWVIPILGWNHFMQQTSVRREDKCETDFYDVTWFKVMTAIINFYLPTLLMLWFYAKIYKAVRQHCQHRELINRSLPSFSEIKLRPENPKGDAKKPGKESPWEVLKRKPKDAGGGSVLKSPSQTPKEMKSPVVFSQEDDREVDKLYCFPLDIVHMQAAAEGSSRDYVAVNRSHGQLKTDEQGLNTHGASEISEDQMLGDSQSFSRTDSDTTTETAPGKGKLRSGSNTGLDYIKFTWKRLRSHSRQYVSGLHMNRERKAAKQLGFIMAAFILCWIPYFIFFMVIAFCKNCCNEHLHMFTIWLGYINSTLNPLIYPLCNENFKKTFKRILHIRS

T3 sequence (P23975 whole entry): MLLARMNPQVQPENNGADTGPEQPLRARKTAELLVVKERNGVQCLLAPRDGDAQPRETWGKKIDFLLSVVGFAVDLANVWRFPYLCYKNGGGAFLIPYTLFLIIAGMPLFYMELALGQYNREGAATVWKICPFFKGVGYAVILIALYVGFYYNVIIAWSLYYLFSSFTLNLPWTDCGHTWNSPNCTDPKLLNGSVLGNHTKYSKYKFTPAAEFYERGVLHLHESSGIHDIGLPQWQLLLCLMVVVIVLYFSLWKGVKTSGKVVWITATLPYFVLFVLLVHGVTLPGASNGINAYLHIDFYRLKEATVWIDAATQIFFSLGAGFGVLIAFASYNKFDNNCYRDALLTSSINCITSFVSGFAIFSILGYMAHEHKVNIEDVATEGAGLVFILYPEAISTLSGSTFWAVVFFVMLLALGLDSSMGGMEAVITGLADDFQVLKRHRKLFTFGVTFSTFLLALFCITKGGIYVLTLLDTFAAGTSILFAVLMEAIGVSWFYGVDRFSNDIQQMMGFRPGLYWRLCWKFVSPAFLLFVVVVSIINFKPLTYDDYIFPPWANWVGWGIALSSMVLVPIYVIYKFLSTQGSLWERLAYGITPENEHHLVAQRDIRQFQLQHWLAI
T2 sequence (P12822 34-1310): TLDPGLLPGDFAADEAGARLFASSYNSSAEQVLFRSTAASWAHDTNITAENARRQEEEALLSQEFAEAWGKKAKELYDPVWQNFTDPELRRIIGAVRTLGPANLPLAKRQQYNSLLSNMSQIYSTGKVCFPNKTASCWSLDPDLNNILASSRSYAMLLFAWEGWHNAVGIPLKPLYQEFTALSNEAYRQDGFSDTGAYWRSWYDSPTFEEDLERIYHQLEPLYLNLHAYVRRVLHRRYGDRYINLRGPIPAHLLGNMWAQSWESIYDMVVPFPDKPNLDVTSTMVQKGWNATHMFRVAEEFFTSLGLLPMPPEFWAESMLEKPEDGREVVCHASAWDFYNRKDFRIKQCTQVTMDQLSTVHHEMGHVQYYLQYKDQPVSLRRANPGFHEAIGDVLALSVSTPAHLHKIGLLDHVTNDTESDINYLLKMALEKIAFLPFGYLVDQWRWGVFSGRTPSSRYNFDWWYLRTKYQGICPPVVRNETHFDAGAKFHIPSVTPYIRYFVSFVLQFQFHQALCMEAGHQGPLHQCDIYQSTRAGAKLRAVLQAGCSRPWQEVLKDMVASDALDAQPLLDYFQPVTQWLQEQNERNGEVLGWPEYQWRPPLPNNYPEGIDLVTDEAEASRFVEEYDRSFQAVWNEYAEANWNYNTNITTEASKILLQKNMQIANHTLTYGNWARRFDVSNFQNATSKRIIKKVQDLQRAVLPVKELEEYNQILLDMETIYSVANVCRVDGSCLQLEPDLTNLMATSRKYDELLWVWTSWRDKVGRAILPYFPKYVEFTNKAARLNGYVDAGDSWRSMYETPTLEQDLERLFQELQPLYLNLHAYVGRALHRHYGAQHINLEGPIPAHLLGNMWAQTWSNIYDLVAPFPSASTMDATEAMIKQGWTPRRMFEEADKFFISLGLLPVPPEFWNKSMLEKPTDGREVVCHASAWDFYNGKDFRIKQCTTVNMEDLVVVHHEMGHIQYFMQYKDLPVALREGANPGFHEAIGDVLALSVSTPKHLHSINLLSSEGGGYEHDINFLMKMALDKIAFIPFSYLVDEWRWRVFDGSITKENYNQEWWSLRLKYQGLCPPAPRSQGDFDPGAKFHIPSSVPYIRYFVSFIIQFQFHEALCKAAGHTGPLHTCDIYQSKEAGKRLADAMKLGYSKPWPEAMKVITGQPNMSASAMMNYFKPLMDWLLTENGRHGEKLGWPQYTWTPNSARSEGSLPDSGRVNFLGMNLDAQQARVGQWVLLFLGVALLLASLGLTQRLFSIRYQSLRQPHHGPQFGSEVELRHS
T1 sequence (P30411 whole entry): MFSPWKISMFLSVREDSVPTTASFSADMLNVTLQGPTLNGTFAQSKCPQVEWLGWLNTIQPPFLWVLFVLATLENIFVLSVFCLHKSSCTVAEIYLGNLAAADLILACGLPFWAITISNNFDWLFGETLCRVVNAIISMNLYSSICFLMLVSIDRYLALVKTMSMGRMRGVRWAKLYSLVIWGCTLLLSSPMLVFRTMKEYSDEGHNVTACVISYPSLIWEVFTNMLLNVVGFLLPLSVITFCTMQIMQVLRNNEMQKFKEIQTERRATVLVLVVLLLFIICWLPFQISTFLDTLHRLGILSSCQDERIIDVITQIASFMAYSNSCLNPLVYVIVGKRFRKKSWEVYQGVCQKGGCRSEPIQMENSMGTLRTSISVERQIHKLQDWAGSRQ

CS(=O)(=O)N1CCN(C(=O)c2cnc3ccc(F)cc3c2N2CCC(C#N)(c3ccccc3)CC2)CC1 [Compound C-86, 1-(6-fluoro-3-(4-(methylsulfonyl)piperazine-1-carbonyl)quinolin-4-yl)-4-phenylpiperidine-4-carbonitrile] was tested, and the inhibition at 10 µM [1] was 2%, the tumor inhibition [2] was “significant tumor inhibition” and the inhibition at 10 µM [3] was -6%. The “suppression of DC differentiation by HCC cells or CM” value [4] was “reversed”, the inhibition at 10 µM [5] was 35% and the “% Inh. Phosphodiesterase PDE3” value [6] was −23%. For the same compound, the “potential of monocytes to differentiate into DCs” value ([7]; direct treatment of monocytes in vitro) was “did not alter”, the “suppression of DC differentiation by HCC cells or CM” value ([7]; human monocytes, HCC cells pre-treated) was “reversed” and the inhibition at 10 µM [8] was 13%.
